We go through four compounds from publication PMC3274751 (ACS medicinal chemistry letters, 2011).

One data set concerns MeV-Alaska. Kind of data set: Viral CPE inhibition. The note with it: compared with BM-1.
The test system of another data set is actively dividing cells. Conditions: cited from earlier work.
The test system of a further data set is Vero cells. Kind of data set: Cytotoxicity in Vero cells.

Each structure is given as a SMILES string.

In the case of `COc1ccc(-n2c(SC(C)C(=O)Nc3cc(C)nn3C)nc3ccccc32)cc1` (centres unmarked) [Compound 6j], the “fold reduction of potency relative to BM-1” value with MeV-Alaska is reported as 2 fold.

Regarding `COc1ccc(-n2c(SC(C)C(=O)Nc3nc(C)cs3)nc3ccccc32)cc1` (centres unmarked) [Compound 6m], the “fold reduction of potency relative to BM-1” value in the data set with MeV-Alaska was 10 fold.

Turning to `COc1ccc(-n2c(SC(C)C(=O)Nc3cc(C)no3)nc3ccccc32)cc1` (centres unmarked) [Compound 6n], the “fold reduction of potency relative to BM-1” value with MeV-Alaska is 2 fold.

With `COc1ccc(-n2c(SC(C)C(=O)Nc3ccc(C)cc3Cl)nc3ccccc32)cc1` (centres unmarked) [Compound 6p], in the data set on actively dividing cells, the “effect on cell proliferation” value is recorded as “cytostatic effect”. Also, the “acute cytotoxicity” value in the data set on Vero cells is “does not display any detectable acute cytotoxicity”.
